Measurements as given in patent publication US11076598B2, “Peroxide-based disinfecting solutions containing inorganic salts” (Diversey, Inc., priority 2017, dated 2021).

Assay: Antimicrobial efficacy of the inorganic salt on its own
Conditions: salt alone at the concentration employed in the solutions

N.N.O=S(=O)(O)O [ammonium sulphate]
antimicrobial efficacy of the salt on its own: no antimicrobial efficacy on its own

[Cl-].[Na+] [sodium chloride]
antimicrobial efficacy of the salt on its own: no antimicrobial efficacy on its own
